# Experimental data reported in US11723987B2, “Double suicide gene vector systems for stem cells” (UNIVERSITY OF MIAMI, priority 2016, dated 2023).
# Entries after “also recorded” stand apart in the source; their conditions may differ.
# B1: T41L/N71S: double mutant of E. coli nitroreductase (NTR, nfsB) with enhanced kinetics of CB1954 activation (protein, UniProt P38489 1-217, looked up, variant T41L N71S)
# Oxygen-insensitive NAD(P)H …: MDIISVALKRHSTKAFDASKKLTPEQAEQIKTLLQYSPSSLNSQPWHFIVASTEEGKARVAKSAAGNYVFSERKMLDASHVVVFCAKTAMDDVWLKLVVDQEDADGRFATPEAKAANDKGRKFFADMHRKDLHDDAEWMAKQVYLNVGNFLLGVAALGLDAVPIEGFDAAILDAEFGLKEKGYTSLVVVPVGHHSVEDFNATLPKSRLPQNITLTEV
# Tests used:
# λH1 cells (H1.1 cells) = experiment: MTT kill curve / pro-drug exposure of undifferentiated suicide-gene modified hESc; format: cell-based, human; settings: for exposure time after which most λH1 cells die: 10 μM CB1954, 100 μM GCV (FIG. 8c); for ablation of H1.1 cells: after 7 days of exposure (FIG. 2); for sensitivity of undifferentiated modified clones to pro-drug: undifferentiated state
# Excerpt: Clones of the hESc line H1 containing both constructs were selected using Puro (for plasmid L) and Neo (for plasmid F). We used electroporation of the linearized plasmids followed by Puro+Neo selection to achieve stable integration of both cassettes (λH1). Integration was confirmed by PCR, and positive clones were expanded and stocked in liquid N2. ˜25 double resistant clones were handpicked, expanded under antibiotic selection and frozen in liquid N2. A typical undifferentiated colony of one such clone, propagated in Puro+Neo to maintain selective pressure, was imaged. […] Aliquots were screened by genomic PCR to confirm the integration of both constructs (data not shown). qRT-PCR was performed to determine which clones had higher transgene (HSV-TK and NTR) expression. Clone A (H1.1 from now on) was selected for further testing based on the results of these assays. A kill curve using different dosages for GCV (0.01 to 1000 μM) and CB1954 (0.1 to 300 μM) was done for H1.1. Cell death was quantified by MTT assays on H1.1 and the parental wild-type H1 line. These assays helped us determine the optimal concentration of each pro-drug that leads to complete ablation of undifferentiated H1.1 cells while preserving the viability of the parental line within 7 days. Such concentration was in the range of 10-100 μM for GCV and 50-100 μM for CB1954, as previously reported in the literature for other cell types^26,54,55. The integration of these constructs had no detectable effects in terms of pluripotency marker expression (TRA-1-60, SSEA3, SSEA4, Oct3/4, Nanog) vs. the unmodified parental line H1, as determined by qRT-PCR, immunofluorescence and FACS analyses (data not shown).
# A kill curve using different dosages for GCV (0.01 to 1000 μM) and CB1954 (0.1 to 300 μM) was done for λH1 and the parental H1 lines. Cell death was quantified by MTT [3-(4,5-dimethylthiazol-2-yl)-2,5-diphenyltetrazolium bromide] assays, which helped us determine the optimal concentration of each pro-drug that leads to ablation of undifferentiated λH1 cells while preserving the viability of the parental line within 7 days. Such concentration was in the range of 10-100 μM for both GCV and CB1954 (FIG. 8a), as previously reported in the literature for other cell types (21, 22). We used 10 μM for CB1954 and 100 μM of GCV for all subsequent experiments.
# hESc (H1, National Stem Cell Registry #WA01, passage 35-45) were cultured as described in Schuldiner et al., PNAS USA 97: 11307-11312 (2000) using mTeSR™ (STEMCELL Technologies, Vancouver, Canada). […] MTT (3-(4,5-dimethylthiazol-2-yl)-2,5-Diphenyltetrazolium Bromide) is a reagent which is converted from a soluble tetrazolium to its insoluble formazan form via the activity of mitochondrial NAD(P)H-dependent oxidoreductase activity. This can be used to evaluate growth and proliferation of hESC colonies. MTT growth assays were performed for the sensitivity of transfected colonies to neomycin, puromycin, GCV and CB1954 at varying concentrations as previously described.
# parental H1 hESc line = experiment: MTT kill curve / pro-drug exposure of parental unmodified hESc; format: cell-based, human; settings: up to 7 days of exposure
# Excerpt: Clones of the hESc line H1 containing both constructs were selected using Puro (for plasmid L) and Neo (for plasmid F). We used electroporation of the linearized plasmids followed by Puro+Neo selection to achieve stable integration of both cassettes (λH1). Integration was confirmed by PCR, and positive clones were expanded and stocked in liquid N2. ˜25 double resistant clones were handpicked, expanded under antibiotic selection and frozen in liquid N2. A typical undifferentiated colony of one such clone, propagated in Puro+Neo to maintain selective pressure, was imaged. […] Cell death was quantified by MTT assays on H1.1 and the parental wild-type H1 line. […] The integration of these constructs had no detectable effects in terms of pluripotency marker expression (TRA-1-60, SSEA3, SSEA4, Oct3/4, Nanog) vs. the unmodified parental line H1, as determined by qRT-PCR, immunofluorescence and FACS analyses (data not shown).
# A kill curve using different dosages for GCV (0.01 to 1000 μM) and CB1954 (0.1 to 300 μM) was done for λH1 and the parental H1 lines. Cell death was quantified by MTT [3-(4,5-dimethylthiazol-2-yl)-2,5-diphenyltetrazolium bromide] assays, which helped us determine the optimal concentration of each pro-drug that leads to ablation of undifferentiated λH1 cells while preserving the viability of the parental line within 7 days. […]
# teratomas from λH1 cells = experiment: Teratoma formation/elimination in immunodeficient mice xenotransplanted with undifferentiated λH1 cells; format: in vivo, NOD-SCID mice
# Method: In order to test whether our suicide gene strategy works as intended in vivo, 5×10^6 undifferentiated λH1 cells were transplanted subcutaneously in the left posterior dorsal flank of 5-6-week-old immunodeficient NOD-SCID mice. These conditions are known to result in the formation of teratomas within 6-9 weeks. Groups were assigned as follows: • 1. Control (no treatment): 3 mice • 2. Peri-transplantation treatment with GCV (40 mg/kg of body weight; 5 days, starting the 7th day after transplantation): 4 mice • 3. Peri-transplantation treatment with CB1954 (20 mg/kg of body weight; 5 days, starting the 7th day after transplantation): 4 mice
# As described in the literature, tumors could be manually palpated and measured using calipers in the control group starting at week 6-7. At week 10, one of the mice was euthanized for histopathological characterization of the teratoma. Starting on week 11, we treated the remaining two mice with a combination of GCV and CB1954 to test the hypothesis that pro-drug administration would eliminate already formed tumors.
# Two mice in this group were euthanized at this point, showing no evidence of tumors (data not shown). […] This could be due to either the carry-over of residual hESc escapees that survived the initial GCV regimen, or to the development of GCV-resistant mutations in HSV-TK, as described in the literature. To test these two hypotheses, we re-treated these animals with ganciclovir in a 5-day drug/2-day rest regimen for the following two weeks. If the reason for the appearance of these late-onset tumors was resistance to the drug, we should continue to observe tumor growth despite the treatment; in contrast, if they were derived from surviving escapees, we might see tumor recession.
# All animal experiments were conducted under the supervision of the University of Miami Institutional Animal Care and Use Committee (IACUC). NOD-SCID mice (5-6 weeks old; Jackson Laboratories, Bar Harbour, Me.) were housed in […] pathogen-free (SPF) conditions at the Division of Veterinary Resources (DVR). 5×10^6 hESc were resuspended in 50 μl mTeSR supplemented with […] of the ROCK inhibitor Y-27632A, and subsequently mixed with undiluted Matrigel of equal volume. The cell suspension was injected into the subcutis of the left posterior dorsal flank of the animal. Tumor growth was monitored with a caliper. Mice were euthanized after the observation/re-treatment period, as described in the Results section. Euthanized animals were subject to general observation. The injection site was inspected and tumor tissue, if present, was collected and processed for histopathological analysis. Lungs, liver spleen and pancreas were also harvested for histological analysis of potential tumor invasion.
# tumor cell lines = settings: Prof. Searle, personal communication; cited from earlier work
Molecule,exposure time after which most λH1 cells die (λH1 cells (H1.1 cells)),ablation of H1.1 cells (λH1 cells (H1.1 cells)),sensitivity of undifferentiated modified clones to pro-drug (λH1 cells (H1.1 cells)),sensitivity of parental H1 line to pro-drug (parental H1 hESc line),"tumor formation after peri-transplantation treatment with CB1954 (teratomas from λH1 cells; 20 mg/kg, 5 days, starting the 7th day after transplantation, 11 weeks into the follow-up)","optimal concentration of pro-drug that leads to ablation of undifferentiated modified cells while preserving the viability of the parental line (λH1 cells (H1.1 cells); within 7 days, MTT assay, kill curve GCV 0.01 to 1000 μM, CB1954 0.1 to 300 μM)","tumor detection after peri-transplantation treatment with GCV (teratomas from λH1 cells; 40 mg/kg, 5 days, starting the 7th day after transplantation, up to week 10)","tumors after GCV re-treatment (teratomas from λH1 cells; 5-day drug/2-day rest regimen, 2-week course, one tumor >250 mm^3 at initiation (FIG. 11b))","late-onset tumors in GCV-pretreated mice (teratomas from λH1 cells; two remaining mice, additional week after week 10)",fold lower CB1954 concentration to which cells are sensitized vs the native enzyme (tumor cell lines)
"NC(=O)c1cc(N2CC2)c([N+](=O)[O-])cc1[N+](=O)[O-] [CB1954, 5-(aziridin-1-yl)-2,4-dinitrobenzamide]",3 days,100%,sensitive,largely insensitive; also recorded: resistant; also recorded: remain largely unscathed,none of the animals in the third group (treated in the peri-transplantation period with CB1954) showed signs of tumor formation,,,,,
"Nc1nc(O)c2ncn(COC(CO)CO)c2n1 [GCV, ganciclovir]",7 days,100%,sensitive,largely insensitive; also recorded: resistant; also recorded: remain largely unscathed,,10 to 100 µM,No tumors could be detected,both tumors virtually disappeared,the tumors grew significantly in both mice,
B1,,,,,,,,,,~15 fold
